Like-named read-outs stand apart in the source and are kept apart here.
Columns and labels:
[1] = test system: neuronally-differentiated PC12 cells; assay: survival of neuronally-differentiated PC12 cells after NGF withdrawal; format: cell-based, rat; details: for EC (maximal): Rattus norvegicus
Description: (§1) For survival experiments, naive or neuronally-differentiated PC12 cells were washed extensively in serum-, NGF-free medium as previously described (6,24) and replated onto collagen-coated 24-well tissue culture dishes at a density of approximately 2×10^5 cells per well. The final volume of medium in each well, including all drugs was 1 ml. To allow time for blockade of DNA synthesis, naive PC12 cells were, in some cases, pretreated with drug for 16 hr prior to serum withdrawal. NGF-treated neuronally-differentiated cells were not pretreated with drug prior to serum deprivation. At appropriate times of culture under the desired conditions, cells were lysed and the numbers of viable cells were determined as previously described (24). The number of intact nuclei was determined by counting in a hemacytometer. All counts were performed in triplicate, and survival data are expressed as a percentage of cells plated on day 0+/-SEM.

[2] = as above; format: cell-based, rat; details: rat; post-mitotic neuronally-differentiated PC12 cells, with NGF, day 3; read-out: death in the presence of NGF
Description: as §1

c-Jun kinase (JNK) [3] = assay: c-Jun kinase activation in NGF-deprived neuronally-differentiated PC12 cells; format: cell-based, rat; details: flavopiridol 1 μM, olomoucine 200 μM
Description: (§2) c-Jun kinase (JNK) was affinity purified from PC12 cell extracts with GST-c-Jun (a gift from Dr. Michael Karin, University of California, San Diego) bound to GSH-agarose beads (Sigma) by methods previously described (34). c-Jun kinase activity was determined by an in vitro solid-phase kinase assay as described previously (34). Activated c-Jun kinase was isolated from PC12 cells treated with 0.5 mM sodium arsenite for 30 min. […] GST-c-Jun was resolved on a 8.5% SDS gel and incorporation of ^32 PO4 was quantified by autoradiography and densitometry.

c-Jun kinase (JNK) [4] = assay: in vitro solid-phase kinase assay, phosphorylation of GST-c-Jun by activated JNK; format: biochemical, rat; details: for IC50: read-out: IC50, inhibition of GST-c-Jun phosphorylation by activated JNK in vitro
Description: as §2

rat sympathetic neurons = assay: survival of rat sympathetic neurons after NGF withdrawal; format: cell-based; details: for survival of NGF-deprived sympathetic neurons: flavopiridol 1 μM, iso-olomoucine 200 μM
Description: The cells were plated in 0.5 ml of medium per well in collagen-coated 24-well dishes at a density of approximately 0.5 ganglia per well. […] To eliminate non-neuronal cells, a mixture of uridine and 5-fluorodeoxyuridine (10 μM each) were added to the cultures on the following day. […] The appropriate drug and/or NGF or anti-mouse NGF antibody (1:200 dilution) was added in a final volume of 0.5 ml of the same medium described above. At appropriate times, the numbers of viable, phase bright neurons were determined by strip counting as previously described (33). All survival data are expressed as relative to the original number of cells counted for each well. All experimental points were performed in triplicate and are reported as mean+/-SEM,

[5] = test system: neuronally-differentiated PC12 cells; assay: rate of protein synthesis ([3H]-leucine incorporation) in neuronally-differentiated PC12 cells; format: cell-based, rat
Description: (§3) Neuronally-differentiated PC12 cells and sympathetic neurons were plated on 24-well dishes as described above. After the cultures were pretreated with the appropriate drug for 1 hr, 5 μCi [^3 H]-leucine was added per well and the cells were allowed to incorporate the isotope for 10 hr. The cultures were washed and prepared for scintillation counting as described above for thymidine incorporation. Background levels of radioactivity was determined by treating wells with 5 μg/ml cycloheximide. All experimental points were performed in triplicate and the data are presented relative to untreated control samples as mean+/-SEM.

sympathetic neurons = assay: rate of protein synthesis ([3H]-leucine incorporation) in sympathetic neurons; format: cell-based; details: Rattus norvegicus, Sympathetic neuron
Description: as §3

[6] = survival of naive PC12 cells with or without serum; format: cell-based, rat; details: rat, naive pc12 cells; serum-containing medium, day 3; read-out: death of naive PC12 cells in the presence of serum
Description: as §1

naive PC12 cells [7] = assay: survival of naive PC12 cells with or without serum; format: cell-based, rat; details: 16 hrs pretreatment, serum withdrawal
Description: as §1

naive PC12 cells [8] = assay: [3H]-thymidine incorporation by naive PC12 cells; format: cell-based, rat; details: compared with olomoucine
Description: Naive PC12 cells were plated in collagen-coated 24-well dishes at a density of 4×10^5 per well in RPMI 1640 medium containing 3 μM insulin (Sigma) or 10% horse serum and 5% fetal calf serum. […] The cells were pretreated with the appropriate drug for a period of 16 hr prior to the addition of 1 μCi per well of [^3 H]-thymidine (NEN Products, Dupont). The cells were exposed to thymidine for 1-2 hour and then washed three times with cold PBS. Each well was extracted with 1 ml of 10% TCA at 4° C. for 1 hr, and the insoluble material was solubilized overnight at room temperature with 0.3 ml 1N NaOH. After neutralization with an equal volume of 1 N HCl, the solution was quantified by scintillation counting. The level of background counts was determined by treating cells with 10 μM aphidicolin. All experimental points were performed in triplicate. All data are presented relative to untreated control samples as mean+/-SEM.

cdk1 = details: read-out: IC50, inhibition of cdk1 activity; cited from earlier work
GST-ERK1 = details: read-out: IC50, inhibition of GST-ERK1 activity in vitro; cited from earlier work
[9] = neuronally-differentiated PC12 cells

SMILES | cytotoxicity at 72 h [2] | protection from cell death after NGF withdrawal [1, 9] | level of JNK activation after NGF deprivation (c-Jun kinase (JNK) [3]) | IC50 (c-Jun kinase (JNK) [4]) | survival of NGF-deprived sympathetic neurons (rat sympathetic neurons) | cytotoxicity at 72 h [6] | survival of serum-deprived naive PC12 cells (naive PC12 cells [7]) | other results
COc1cccc(-c2cc(=O)c3ccccc3o2)c1N [PD 098059] | – | – | – | – | – | – | – | NGF-stimulated neurite regeneration ([1]; 20-100 μM, PC12 cells passaged into serum-free medium with NGF): effectively suppressed NGF-stimulated neurite regeneration; effect on NGF-promoted survival ([1]; 20-100 μM, naive or neuronally-differentiated PC12 cells, serum-free medium with or without NGF): neither blocked nor mimicked the capacity of NGF to promote survival
CN1CC[C@H](c2c(O)cc(O)c3c(=O)cc(-c4ccccc4Cl)oc23)[C@H](O)C1 [flavopiridol, (-) cis-5,7-dihydroxy-2-(2-chlorophenyl) -8[4-(3-hydroxy-1-methyl) -piperidinyl]-4H-benzopyran-4-one] | ~20% | good maintenance of survival even 5 days after NGF withdrawal | did not decrease the level of JNK activation | > 12 µM | full survival for at least four days | 75% | died somewhat more quickly than control cells | EC (maximal) ([1]; PC-12, neuronally-differentiated PC12 cells, serum-free medium, read-out: concentration of maximal protection from death induced by NGF withdrawal): 1 µM; effect on in vitro phosphorylation of GST-c-Jun (c-Jun kinase (JNK) [4]; 12 μM): no effect; effect on in vitro phosphorylation of GST-c-Jun (c-Jun kinase (JNK) [4]; 50 μM): significantly inhibited phosphorylation; inhibition at 1 µM ([5]; Rattus norvegicus, PC-12): ~25%; inhibition at 1 µM (sympathetic neurons): ~25%
Cn1cnc2nc(NCCO)nc(NCc3ccccc3)c21 [iso-olomoucine] | – | far less effective than olomoucine | – | – | ineffective | – | – | inhibition of thymidine incorporation (naive PC12 cells [8]): far less effective than olomoucine; IC50 (cdk1): > 500 µM
Cn1cnc2c(NCc3ccccc3)nc(NCCO)nc21 [olomoucine, 2-(2-hydroxyethylamino) -6-benzylamino-9-methylpurine] | ~20% | – | did not decrease the level of JNK activation | ~100 µM | – | 75% | died at about the same rate as control cells | EC (maximal) ([1]; PC-12, read-out: concentration of maximal protection from death induced by NGF withdrawal): 200 µM; viability at 200 µM (rat sympathetic neurons; Rattus norvegicus, Sympathetic neuron, 168 h, read-out: neurons still viable): ~75%; effect on protein synthesis ([5]; PC12 cell cultures, 200 μM): no effect; inhibition at 200 µM (sympathetic neurons): ~30%; IC50 (GST-ERK1): 30 µM

Source: patent publication US6087366A (The Trustees of Columbia University in the City of New York, priority 1996, dated 2000)
